In one data set the test system is NF-κB (p65). Description: p65 nuclear translocation immunofluorescence. Format: cell-based, murine. As to the method: The murine macrophage cell line RAW 264.7 was purchased from ATCC (Manassas, Va.) and maintained in DMEM (Life Technologies, Carlsbad, Calif.) supplemented with 10% FBS. Soluble CFZ or isolated CLDIs were added at various concentrations in DMEM with 5% FBS to 6-well plates containing 4×10^5 cells/well and incubated (24 h at 37° C. and 5% CO2). Culture supernatants were harvested at 24 h, centrifuged (1500×g for 5 min), and stored (−20° C.) in frozen aliquots prior to analysis. For experiments involving TLR stimulation, cells were washed twice with pre-warmed DPBS to remove extracellular, non-phagocytosed CLDIs or CFZ, and then the cells were serum-starved for 18 h in DMEM. […]
Brightfield and fluorescence (DAPI, FITC, Texas Red and Cy5) images were captured using the Nikon Eclipse Ti (Japan) inverted microscope equipped with a Nikon Digital Sight DS-Fi2 camera (Japan) for brightfield and Photometrics Coolsnap Myo camera (Tucson, Ariz.) for fluorescence. […] For determining the ratio of nucleus-to-cytoplasm p65 fluorescence, ImageJ was used following previously described methods (Fuseler, et al., Microsc. Microanal. 2006, 12, 269-276; Noursadeghi, M. et al., J. Immunol. Methods 2008, 329, 194-200). The average volume of CLDIs was calculated using the area, Feret max and min values of each CLDI acquired from ImageJ. […]

In the next data set the test system is TNFα. Description: TNFα ELISA, non-stimulated cells. Format: cell-based, murine. Particulars: non-stimulated RAW 264.7 cells. As to the method: (§1) The murine macrophage cell line RAW 264.7 was purchased from ATCC (Manassas, Va.) and maintained in DMEM (Life Technologies, Carlsbad, Calif.) supplemented with 10% FBS. Soluble CFZ or isolated CLDIs were added at various concentrations in DMEM with 5% FBS to 6-well plates containing 4×10^5 cells/well and incubated (24 h at 37° C. and 5% CO2). Culture supernatants were harvested at 24 h, centrifuged (1500×g for 5 min), and stored (−20° C.) in frozen aliquots prior to analysis. For experiments involving TLR stimulation, cells were washed twice with pre-warmed DPBS to remove extracellular, non-phagocytosed CLDIs or CFZ, and then the cells were serum-starved for 18 h in DMEM. Supernatants were collected from unstimulated cells and cells stimulated with 200 ng/ml Pam3 or 1 μg/ml LPS in DMEM.
(§2) The media of cells with or without 6 h TLR stimulation by Pam3 or LPS was harvested, and TNFα and IL-1RA levels were measured by ELISA (Duoset, R&D Systems, Minneapolis, Minn.) in duplicate wells according to the manufacturer's instructions. The cytokine concentrations were expressed as picogram per milligram of cell lysate. Experiments were repeated three times and values are expressed as the mean±SD.
(ELISA stands for enzyme-linked immunosorbent assay.)

For data set [1] the following is noted: cited from earlier work.
For data set [2] the following is noted: mice; cited from earlier work.
Data set [3] in a line: Measurement of CFZ in tissues. Format: in vivo, mice. As to the method:
Mice (4 week old, male C57Bl6) were purchased from the Jackson Laboratory (Bar Harbor, Me.) and acclimatized for 1 week in a specific-pathogen-free animal facility. Animal care was provided by the University of Michigan's Unit for Laboratory Animal Medicine (ULAM), and the experimental protocol was approved by the Committee on Use and Care of Animals. Clofazimine (CFZ) (C8895; Sigma-Aldrich, St. Louis, Mo.) was dissolved in sesame oil (Roland, China, or Shirakiku, Japan) to achieve a concentration of 3 mg/ml, which was mixed with Powdered Lab Diet 5001 (PMI International, Inc., St. Louis, Mo.) to produce a 0.03% drug to powdered feed (Baik et al., 2013, supra). […]
CFZ mass was measured as previously reported (Baik et al., 2012, supra; Venkatesan, et al., Arzneim. Forsch. 2007, 57, 472-474). […] CFZ mass was spectrophotometrically determined in methanol (λ=490 nm) and the concentration was calculated using a standard curve generated by spiking extracted tissue of the control (vehicle-only treated) mice tissue with known amounts of drug. The tissue-to-fat partition ratios were computed based on mass of drug in the various tissues relative to mass of drug in total body fat (units: dimensionless; calculated as [mg CFZ/g tissue]/[mg CFZ/g fat]). […] CFZ mass was measured in relation to the measured weight of the tissue or plasma volume.

The conditions of data set [4]: humans; cited from earlier work.
A further data set relates to IL-1RA. Description: IL-1RA ELISA. Format: cell-based, murine. Particulars: RAW 264.7 cells, 24 h. As to the method:
as §1, §2

Results on one compound are retold here after US20160220710A1, “COMPOSITIONS AND METHODS FOR DELIVERING PHARMACEUTICAL AGENTS” (THE REGENTS OF THE UNIVERSITY OF MICHIGAN, priority 2015, published 2016).

Where two headings read alike, the source gives them in different places.

Turning to `CC(C)/N=c1\cc2n(-c3ccc(Cl)cc3)c3ccccc3nc-2cc1Nc1ccc(Cl)cc1` [CFZ, 3-(p-chloroanilino)-10-(p-chlorophenyl)-2, 10-dihydro-2-isopropyliminophenazine], the p65 nuclear translocation entry was “reduced p65 translocation in response to LPS” in the data set on NF-κB (p65) (LPS stimulation, 3 h, 4 μM soluble CFZ or 40 μM CLDI) and “did not induce nuclear translocation of p65” with NF-κB (p65) (naïve, no stimulation). The “TNFα production on their own” value with TNFα is “failed to induce TNFα production”. Moreover, the half-life result in data set [1] (after an acute dose, oral) is “in the order of hours to days”; in data set [1] (upon prolonged oral administration), “in the order of weeks to months”. The “pharmacokinetic half-life t1/2” value is recorded as about 7 days in data set [2] and about 70 days in data set [4]. For the same compound, the “CFZ mass retained in spleen” value in data set [3] (after the eight week washout period) is “exceeded its combined mass retained in the other organs”. For the same compound, the Kp in data set [3] (male, C57Bl6, mouse, adipose tissue / serum, 10 mg/kg per day, starting at three weeks of oral administration, read-out: CFZ concentration in adipose tissue relative to serum) was over 10000. In the data set with IL-1RA, the IL-1RA secretion entry was “did not affect IL-1RA secretion”.
